In ChEMBL document CHEMBL2074110, “Characterization, cDNA cloning, and functional expression of mouse ileal sodium-dependent bile acid transporter” (J Biochem, 1999):

Legend:
Type in all cases: functional, cell-based
Conditions in all cases: ileocyte
[1] = biological target: T1, Ileal sodium/bile acid cotransporter (Mus musculus, UniProt P70172); assay: TP_TRANSPORTER: inhibition of Taurocholate uptake (Taurocholate: 0.72 uM, Deoxycholate: a 100-fold excess) in isolated mouse ileocytes
T1 sequence (P70172 whole entry): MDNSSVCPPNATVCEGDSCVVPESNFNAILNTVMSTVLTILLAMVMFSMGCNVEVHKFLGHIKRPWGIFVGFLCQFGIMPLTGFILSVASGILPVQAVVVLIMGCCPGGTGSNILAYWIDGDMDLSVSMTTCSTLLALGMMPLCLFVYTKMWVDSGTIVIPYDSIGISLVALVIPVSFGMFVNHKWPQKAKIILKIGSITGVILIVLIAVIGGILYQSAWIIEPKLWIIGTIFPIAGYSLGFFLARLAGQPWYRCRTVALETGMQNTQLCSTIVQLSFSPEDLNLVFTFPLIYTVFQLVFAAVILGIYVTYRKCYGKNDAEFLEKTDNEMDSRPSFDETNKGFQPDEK

[2] = biological target: T1, Ileal sodium/bile acid cotransporter; assay: TP_TRANSPORTER: inhibition of Taurocholate uptake (Taurocholate: 0.72 uM, Lithocholate: a 100-fold excess) in isolated mouse ileocytes
[3] = biological target: T1, Ileal sodium/bile acid cotransporter; assay: TP_TRANSPORTER: inhibition of Taurocholate uptake (Taurocholate: 0.72 uM, CDCA: a 100-fold excess) in isolated mouse ileocytes
[4] = biological target: T1, Ileal sodium/bile acid cotransporter; assay: TP_TRANSPORTER: inhibition of Taurocholate uptake (Taurocholate: 0.72 uM, GC: a 100-fold excess) in isolated mouse ileocytes

C[C@H](CCC(=O)O)[C@H]1CC[C@H]2[C@@H]3CC[C@@H]4C[C@H](O)CC[C@]4(C)[C@H]3C[C@H](O)[C@]12C [DEOXYCHOLIC ACID]
Activity [1]: inhibitor [+]

C[C@H](CCC(=O)O)[C@H]1CC[C@H]2[C@@H]3CC[C@@H]4C[C@H](O)CC[C@]4(C)[C@H]3CC[C@]12C [LITHOCHOLIC ACID]
Activity [2]: inhibitor [+]

C[C@H](CCC(=O)O)[C@H]1CC[C@H]2[C@@H]3[C@H](O)C[C@@H]4C[C@H](O)CC[C@]4(C)[C@H]3CC[C@]12C [CHENODIOL]
Activity [3]: inhibitor [+]

C[C@H](CCC(=O)NCC(=O)O)[C@H]1CC[C@H]2[C@@H]3[C@H](O)C[C@@H]4C[C@H](O)CC[C@]4(C)[C@H]3C[C@H](O)[C@]12C [GLYCOCHOLIC ACID]
Activity [4]: inhibitor [+]
